# From patent US20060177530A1, “Method of treating diabetes type II” (priority 2003, published 2006)
# Tested on: mice
# Experiment: Safety and toxicity studies in mice
# Type: in vivo
# Details: 0.5, 1 and 2 g/kg
# Description: The clinical dose of HT is in the range of 1-2000 mg/day, more preferably in the range of 5-500 mg/day and most preferably 10-100 mg/day.
smiles,measurement,value
"OCCc1ccc(O)c(O)c1 [HT, hydroxytyrosol]",clinical or pathological toxicity,no clinical or pathological toxicity
